{"source": "patent US3941850A", "about": "“α,α,α',α'-TETRAKIS(4-HYDROXY-3,5-DISUBSTITUTED PHENYL)XYLENE” (The Quaker Oats Company, priority 1974, dated 1976)", "key": {"[1]": {"experiment": "Antioxidant evaluation in cis-polyisoprene (IR carbonyl band, film in oven)", "conditions": "130°C oven, 0.100 g antioxidant, until carbonyl band exceeded 6 cm", "procedure": "A number of candidate antioxidants were evaluated in cis-polyisoprene. Cis-polyisoprene was cut up into small pieces and dissolved overnight in a rapidly stirred solution of 500 ml of toluene. If the antioxidant was readily soluble in toluene, 0.100 g was then added to the cis-polyisoprenetoluene solution and stirred until it dissolved. If the antioxidant was not readily soluble in toluene it was dissolved in a small amount of an appropriate solvent and then added to the toluene solution. A sample of the solution was then taken up in a capillary dropper and 15 drops were placed on a circular sodium chloride plate, 1 inch in diameter. The plate was then put in a 130°C. oven for a few minutes to evaporate the toluene.\nAn infrared spectrum was run of the film on the plate. The plate was then put back in the oven. Every hour it was removed and another infrared spectrum was run. This procedure was repeated until appreciable oxidation had taken place as indicated by the appearance of a carbonyl band at 1700-1750 cm^^-1. The test was ended when the carbonyl band exceded 6 cm on a Perkin Elmer Infrared Spectophotometer, Model 710. This length is approximately equal to the length of the peak at 1450 cm^^-1."}, "[2]": {"experiment": "Solubility in ethanol and toluene", "format": "physicochemical", "conditions": "27°C"}, "[3]": {"experiment": "Heat aging test of polypropylene film", "conditions": "140°C, 5 mil film, 0.1 % by weight tetraphenolic derivative, 0 synergist", "procedure": "A number of candidate stabilizers were incorporated in 5 mil thick samples of polypropylene film, and the resulting materials evaluated by heat aging the films. In some of the tests where indicated dilaurylthiodipropionate was added as synergist.\nIn the heat aging test, polypropylene film samples 5 mil in thickness were maintained in an oven at 140°C. Each sample was tested for loss of structural integrity. The number of hours shown in the table are the total elapsed hours before the film cracked or embrittled when flexed. The film was embrittled when it crumbled to a powder."}}}
{"smiles": "CC(C)(C)c1cc(C(c2ccc(C(c3cc(C(C)(C)C)c(O)c(C(C)(C)C)c3)c3cc(C(C)(C)C)c(O)c(C(C)(C)C)c3)cc2)c2cc(C(C)(C)C)c(O)c(C(C)(C)C)c2)cc(C(C)(C)C)c1O", "note": "[Test 19]", "values": [{"measurement": "Maximum Protection", "setting": "[1]", "result": 16, "unit": "h"}]}
{"smiles": "Cc1cc(C(c2ccc(C(c3cc(C)c(O)cc3C)c3cc(C)c(O)cc3C)cc2)c2cc(C)c(O)cc2C)c(C)cc1O", "note": "[Test 13]", "values": [{"measurement": "Maximum Protection", "setting": "[1]", "result": 3, "unit": "h"}]}
{"smiles": "Cc1cc(C(c2ccc(C(c3cc(C)c(O)c(C)c3)c3cc(C)c(O)c(C)c3)cc2)c2cc(C)c(O)c(C)c2)cc(C)c1O", "note": "[Test 28]", "values": [{"measurement": "Solubility, Ethanol", "setting": "[2]", "result": 3, "unit": "g/100 ml"}, {"measurement": "Solubility, Toluene", "setting": "[2]", "result": "< .17 g/100 ml"}]}
{"smiles": "Oc1c(Cc2ccccc2)cc(C(c2ccc(C(c3cc(Cc4ccccc4)c(O)c(Cc4ccccc4)c3)c3cc(Cc4ccccc4)c(O)c(Cc4ccccc4)c3)cc2)c2cc(Cc3ccccc3)c(O)c(Cc3ccccc3)c2)cc1Cc1ccccc1", "note": "[Test 21]", "values": [{"measurement": "Maximum Protection", "setting": "[1]", "result": 7, "unit": "h"}]}
{"smiles": "Cc1cc(C(c2ccc(C(c3cc(C)c(O)c(C(C)(C)C)c3)c3cc(C)c(O)c(C(C)(C)C)c3)cc2)c2cc(C)c(O)c(C(C)(C)C)c2)cc(C(C)(C)C)c1O", "note": "[Test 14]", "values": [{"measurement": "Maximum Protection", "setting": "[1]", "result": 13, "unit": "h"}]}
{"smiles": "Cc1cc(C(c2ccc(C(c3cc(C)c(O)c(C)c3)c3cc(C)c(O)c(C)c3)cc2)c2cc(C)c(O)c(C)c2)cc(C)c1O", "note": "[Test 24]", "values": [{"measurement": "Oven Hours, Cracked", "setting": "[3]", "result": 31, "unit": "h"}, {"measurement": "Oven Hours, Embrittled", "setting": "[3]", "result": 31, "unit": "h"}]}
{"smiles": "Cc1cc(O)c(C(C)(C)C)cc1C(c1ccc(C(c2cc(C(C)(C)C)c(O)cc2C)c2cc(C(C)(C)C)c(O)cc2C)cc1)c1cc(C(C)(C)C)c(O)cc1C", "note": "[Test 31]", "values": [{"measurement": "Solubility, Ethanol", "setting": "[2]", "result": "> 9", "unit": "g/100 ml"}, {"measurement": "Solubility, Toluene", "setting": "[2]", "result": "< .17 g/100 ml"}]}
{"smiles": "Cc1cc(O)c(C(C)(C)C)cc1C(c1ccc(C(c2cc(C(C)(C)C)c(O)cc2C)c2cc(C(C)(C)C)c(O)cc2C)cc1)c1cc(C(C)(C)C)c(O)cc1C", "note": "[Test 15]", "values": [{"measurement": "Maximum Protection", "setting": "[1]", "result": 6, "unit": "h"}]}
{"smiles": "Cc1ccc(Cc2cc(C(c3ccc(C(c4cc(Cc5ccc(C)cc5)c(O)c(Cc5ccc(C)cc5)c4)c4cc(Cc5ccc(C)cc5)c(O)c(Cc5ccc(C)cc5)c4)cc3)c3cc(Cc4ccc(C)cc4)c(O)c(Cc4ccc(C)cc4)c3)cc(Cc3ccc(C)cc3)c2O)cc1", "note": "[Test 22]", "values": [{"measurement": "Maximum Protection", "setting": "[1]", "result": 6, "unit": "h"}]}
{"smiles": "CC(C)Cc1cc(C(c2ccc(C(c3cc(CC(C)C)c(O)c(CC(C)C)c3)c3cc(CC(C)C)c(O)c(CC(C)C)c3)cc2)c2cc(CC(C)C)c(O)c(CC(C)C)c2)cc(CC(C)C)c1O", "note": "[Test 18]", "values": [{"measurement": "Maximum Protection", "setting": "[1]", "result": 6, "unit": "h"}]}
{"smiles": "CCC(C)c1cc(C(c2ccc(C(c3cc(C(C)CC)c(O)c(C(C)CC)c3)c3cc(C(C)CC)c(O)c(C(C)CC)c3)cc2)c2cc(C(C)CC)c(O)c(C(C)CC)c2)cc(C(C)CC)c1O", "note": "(centres unmarked) [Test 17]", "values": [{"measurement": "Maximum Protection", "setting": "[1]", "result": 7, "unit": "h"}]}
{"smiles": "Cc1cc(C(c2ccc(C(c3cc(C)c(O)c(C(C)(C)C)c3)c3cc(C)c(O)c(C(C)(C)C)c3)cc2)c2cc(C)c(O)c(C(C)(C)C)c2)cc(C(C)(C)C)c1O", "note": "[Test 30]", "values": [{"measurement": "Solubility, Ethanol", "setting": "[2]", "result": "> 9", "unit": "g/100 ml"}, {"measurement": "Solubility, Toluene", "setting": "[2]", "result": "> 9", "unit": "g/100 ml"}]}
{"smiles": "CC(C)c1cc(C(c2ccc(C(c3cc(C(C)C)c(O)c(C(C)C)c3)c3cc(C(C)C)c(O)c(C(C)C)c3)cc2)c2cc(C(C)C)c(O)c(C(C)C)c2)cc(C(C)C)c1O", "note": "[Test 16]", "values": [{"measurement": "Maximum Protection", "setting": "[1]", "result": 7, "unit": "h"}]}
{"smiles": "Cc1cc(C(c2ccc(C(c3cc(C)c(O)cc3C)c3cc(C)c(O)cc3C)cc2)c2cc(C)c(O)cc2C)c(C)cc1O", "note": "[Test 26]", "values": [{"measurement": "Oven Hours, Cracked", "setting": "[3]", "result": 30, "unit": "h"}, {"measurement": "Oven Hours, Embrittled", "setting": "[3]", "result": 30, "unit": "h"}]}
{"smiles": "Cc1cc(C(c2ccc(C(c3cc(C)c(O)c(C)c3)c3cc(C)c(O)c(C)c3)cc2)c2cc(C)c(O)c(C)c2)cc(C)c1O", "note": "[Test 12]", "values": [{"measurement": "Maximum Protection", "setting": "[1]", "result": 8, "unit": "h"}]}
{"smiles": "Cc1cc(C(c2ccc(C(c3cc(C)c(O)cc3C)c3cc(C)c(O)cc3C)cc2)c2cc(C)c(O)cc2C)c(C)cc1O", "note": "[Test 29]", "values": [{"measurement": "Solubility, Ethanol", "setting": "[2]", "result": "< .14 g/100 ml"}, {"measurement": "Solubility, Toluene", "setting": "[2]", "result": "< .17 g/100 ml"}]}
{"smiles": "CCCCC(CC)Cc1cc(C(c2ccc(C(c3cc(CC(CC)CCCC)c(O)c(CC(CC)CCCC)c3)c3cc(CC(CC)CCCC)c(O)c(CC(CC)CCCC)c3)cc2)c2cc(CC(CC)CCCC)c(O)c(CC(CC)CCCC)c2)cc(CC(CC)CCCC)c1O", "note": "(centres unmarked) [Test 20]", "values": [{"measurement": "Maximum Protection", "setting": "[1]", "result": 3, "unit": "h"}]}
